Laboratory results as given in patent publication US20180000952A1, “ENZYME AND RECEPTOR MODULATION” (GlaxoSmithKline Intellectual Property Development Limited, priority 2005, published 2018).
Like-named read-outs stand apart in the source and are kept apart here.

Experiments:
U937 cells = assay: Cell proliferation inhibition assay (WST-1), U937; type: cell-based; conditions: for Ratio IC50 cell/enzyme (Aurora kinase): U937 cell IC50 / Aurora kinase A IC50; for selectivity between a monocytic and non-monocytic cell line (cell proliferation): U937 versus HCT116
Experimental: (§1) Following 24 h of growth cells were treated with compound. Plates were then re-incubated for a further 72-96 h before a WST-1 cell viability assay was conducted according to the suppliers (Roche Applied Science) instructions
(§2) Data were expressed as a percentage inhibition of the control, measured in the absence of inhibitor, as follows;—
(§3) where S^l is the signal in the presence of inhibitor and S^o is the signal in the presence of DMSO.
(§4) Dose response curves were generated from 8 concentrations (top final concentration 10 μM, with 3-fold dilutions), using 6 replicates.

[1] = test system: TNFα production in human whole blood; assay: LPS-stimulation of human whole blood, TNF-α ELISA; type: cell-based; conditions: for Ratio IC50 WB/enzyme (PI 3-Kinase): whole blood IC50 / PI3-Kinase IC50; for Ratio IC50 WB/enzyme (P38 MAP kinase): whole blood IC50 / P38 MAP kinase IC50
Experimental: Whole blood was taken by venous puncture using heparinised vacutainers (Becton Dickinson) and diluted in an equal volume of RPMI1640 tissue culture media. 100 μl was plated in V-bottomed 96 well tissue culture plates. Inhibitor was added in 100 μl of RPMI1640 media, and 2 h later the blood was stimulated with LPS (E coli strain 005:B5, Sigma) at a final concentration of 100 ng/ml and incubated at 37° C. in 5% CO2 for 6 h. TNF-α levels were measured from cell-free supernatants by sandwich ELISA (R&D Systems #QTA00B).

recombinant human DHFR = biological target: T1, recombinant human DHFR (Homo sapiens, UniProt P00374); assay: Dihydrofolate reductase (DHFR) inhibitory activity assay; type: biochemical
T1 construct: purchased Sigma CS0340
T1 sequence (P00374 1-187): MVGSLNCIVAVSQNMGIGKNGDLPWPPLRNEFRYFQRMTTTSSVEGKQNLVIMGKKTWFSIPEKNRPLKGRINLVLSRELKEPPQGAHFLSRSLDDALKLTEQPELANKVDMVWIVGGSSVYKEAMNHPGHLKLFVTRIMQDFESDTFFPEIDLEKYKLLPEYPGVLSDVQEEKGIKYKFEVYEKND
Experimental: The ability of compounds to inhibit DHFR activity was measured in an assay based on the ability of DHFR to catalyse the reversible NADPH-dependent reduction of dihydrofolic acid to tetrahydrofolic acid using a Sigma kit (Catalogue number CS0340). This uses proprietary assay buffer and recombinant human DHFR at 7.5×10^−4 Unit per reaction, NADPH at 60 μM and dihydrofolic acid at 50 μM. The reaction was followed by monitoring the decrease in absorbance at 340 nm, for a 2 minute period, at room temperature, and the enzyme activity was calculated as the rate of decrease in absorbance. Enzyme activity, in the presence of inhibitor, was expressed as a percentage of inhibitor-free activity and the inhibitor IC50 was determined from a sigmoidal dose response curve using XIfit software (% activity against log concentration of compound). Each sample was run in triplicate and each dose response curve was composed of 10 dilutions of the inhibitor.

HCT 116 cells = assay: Cell proliferation inhibition assay (WST-1), HCT116; type: cell-based; conditions: for Ratio IC50 Cell/enzyme (HCT116), Table 2: HCT116 cell IC50 / DHFR enzyme IC50
Experimental: as §1, §2, §3, §4

[2] = test system: U937 cell extract (esterase activity); assay: Broken cell carboxylesterase assay, U937 cell extract; type: in vitro ADME; conditions: U937 versus HCT116 broken cell assay
Experimental: U937 or HCT 116 tumour cells (˜10^9) were washed in 4 volumes of Dulbeccos PBS (˜1 litre) and pelleted at 525 g for 10 min at 4° C. This was repeated twice and the final cell pellet was resuspended in 35 ml of cold homogenising buffer (Trizma 10 mM, NaCl 130 mM, CaCl2 0.5 mM pH 7.0 at 25° C.). Homogenates were prepared by nitrogen cavitation (700 psi for […] at 4° C.). The homogenate was kept on ice and supplemented with a cocktail of Inhibitors at final concentrations of: • Leupeptin 1 μM • Aprotinin 0.1 μM • E64 8 μM • Pepstatin 1.5 μM • Bestatin 162 μM • Chymostatin 33 μM
After clarification of the cell homogenate by centrifugation at 525 g for 10 min, the resulting supernatant was used as a source of esterase activity and was stored at −80° C. until required.
Hydrolysis of esters to the corresponding carboxylic acids can be measured using the cell extract, prepared as above. To this effect cell extract (˜30 μg/total assay volume of 0.5 ml) was incubated at 37° C. in a Tris-HCl 25 mM, 125 mM NaCl buffer, pH 7.5 at 25° C. At zero time the ester (substrate) was then added at a final concentration of 2.5 μM and the samples were incubated at 37° C. for the appropriate time (usually 0 or 80 min). […] After centrifugation at 12000 g for 5 min, samples were analysed for the ester and its corresponding carboxylic acid at room temperature by LCMS (Sciex API 3000, HP1100 binary pump, CTC PAL). […]

[3] = compound as shown (ester or unmodified modulator, or named acid), read-out: IC50 nM enzyme (DHFR)
[4] = enzyme IC50 for the acid resulting from cleavage of the ester shown, read-out: IC50 nM enzyme (acid), figures in brackets

## COc1cc2nccc(Oc3ccc(NC(=O)c4ccccc4)cc3)c2cc1OC [Compound (11), N-{4-(7-methoxy-6-methoxy-quinoline-4-yloxy)-phenyl}-benzamide, reference compound]
U937 cells
  Ratio IC50 cell/enzyme (Aurora kinase): 1.3

## Cc1nc(NC(=O)CC[C@H](N)C(=O)OC(C)(C)C)sc1-c1ccc(Cl)c(S(C)(=O)=O)c1 [Compound (23), (S)-2-Amino-4-[5-(4-chloro-3-methanesulfonyl-phenyl)-4-methyl-thiazol-2-ylcarbamoyl]-butyric acid tert-butyl ester]
[1]
  Ratio IC50 WB/enzyme (PI 3-Kinase): 0.75

## Cc1c(CNc2ccc(C(=O)N[C@@H](CC(C)C)C(=O)O)cc2)cnc2nc(N)nc(N)c12 [Compound (19), (S)-2-(4-((2,4-diamino-5-methylpyrido[2,3-d]pyrimidin-6-yl)methylamino)benzamido)-4-methylpentanoic acid]
Recombinant human DHFR; [3]
  IC50: 10 nM

## Cc1nc(NC(=O)CC[C@H](N)C(=O)OC2CCCC2)sc1-c1ccc(Cl)c(S(C)(=O)=O)c1 [Compound (21), (S)-2-Amino-4-[5-(4-chloro-3-methanesulfonyl-phenyl)-4-methyl-thiazol-2-ylcarbamoyl]-butyric acid cyclopentyl ester]
[1]
  Ratio IC50 WB/enzyme (PI 3-Kinase): 0.15

## COc1cc(NCc2cnc3nc(N)nc(N)c3c2C)cc(OC)c1OC [Compound (2 G=N), 5-Methyl-6-((3,4,5-trimethoxyphenylamino)methyl)pyrido[2,3-d]pyrimidine-2,4-diamine, reference compound]
Recombinant human DHFR; [3]
  IC50: 10 nM

## Cc1c(CNc2ccc(OCCC(NC3CCCCC3)C(=O)OC3CCCC3)cc2)cnc2nc(N)nc(N)c12 (stereo not drawn)
Recombinant human DHFR; [3]
  IC50: 1030 nM
Recombinant human DHFR; [4]
  IC50: 25 nM
HCT 116 cells
  Ratio IC50 Cell/enzyme (HCT116), Table 2: 66

## Cc1c(CNc2ccc(CN[C@@H](CC(C)C)C(=O)OC3CCCC3)cc2)cnc2nc(N)nc(N)c12 [Compound (5), (S)-2-{4-[(2,4-Diamino-5-methyl-pyrido[2,3-d]pyrimidin-6-ylmethyl)-amino]-benzylamino}-4-methyl-pentanoic acid cyclopentyl ester]
U937 cells
  selectivity between a monocytic and non-monocytic cell line (cell proliferation): significantly more anti-proliferative in monocytic cell lines
[2]
  cleavage of the ester in monocytic versus non-monocytic cell lines: selective cleavage in monocytic but not non-monocytic cell lines

## Cc1c(CNc2ccc(C(=O)NC(CC(C)C)C(=O)OC3CCCC3)cc2)cnc2nc(N)nc(N)c12 (stereo not drawn)
Recombinant human DHFR; [3]
  IC50: 1700 nM
Recombinant human DHFR; [4]
  IC50: 8 nM

## COc1cc2c(Oc3ccc(NC(=O)c4ccccc4)cc3)ccnc2cc1OCC[C@H](N)C(=O)OC1CCCC1 [Compound (12), (S)-2-amino-4-[4-(4-benzoylamino-phenoxy)-6-methoxy-quinolin-7-yloxy]-butyric acid cyclopentyl ester]
U937 cells
  Ratio IC50 cell/enzyme (Aurora kinase): 0.0015

## COc1cc(NCc2cnc3nc(N)nc(N)c3c2C)cc(OC)c1OC [drawing 10]
U937 cells; U937 cell IC50 / DHFR enzyme IC50
  Ratio IC50 cell/enzyme (U937), Table 2: 220
HCT 116 cells
  Ratio IC50 Cell/enzyme (HCT116), Table 2: 170

## CC(C)(C)OC(=O)[C@@H](N)CCOc1cc(F)c(-n2c(N)c(C(=O)c3ccc(F)cc3F)ccc2=O)c(F)c1 [Compound (18), (S)-2-Amino-4-{4-[6-amino-5-(2,4-difluoro-benzoyl)-2-oxo-2H-pyridin-1-yl]-3,5-difluoro-phenoxy}-butyric acid tert-butyl ester]
[1]
  Ratio IC50 WB/enzyme (P38 MAP kinase): 18

## COc1cc2c(Oc3ccc(NC(=O)c4ccccc4)cc3)ccnc2cc1OCC[C@H](N)C(=O)OC(C)(C)C [Compound (14), (S)-2-Amino-4-[4-(4-benzoylamino-phenoxy)-6-methoxy-quinolin-7-yloxy]-butyric acid tert-butyl ester]
U937 cells
  Ratio IC50 cell/enzyme (Aurora kinase): 0.025

## Cc1c(CNc2ccc(OCCC(N)C(=O)OC3CCCC3)cc2)cnc2nc(N)nc(N)c12 (stereo not drawn)
Recombinant human DHFR; [3]
  IC50: 2700 nM
Recombinant human DHFR; [4]
  IC50: 11 nM
HCT 116 cells
  Ratio IC50 Cell/enzyme (HCT116), Table 2: 14

## Nc1c(C(=O)c2ccc(F)cc2F)ccc(=O)n1-c1c(F)cccc1F [Compound (15), 6-Amino-5-(2,4-difluoro-benzoyl)-1-(2,6-difluoro-phenyl)-1H-pyridin-2-one, reference compound]
[1]
  Ratio IC50 WB/enzyme (P38 MAP kinase): 6

## CC(=O)Nc1nc(C)c(-c2ccc(Cl)c(S(C)(=O)=O)c2)s1 [Compound (20), N-[5-(4-Chloro-3-methanesulfonyl-phenyl)-4-methyl-thiazol-2-yl]-acetamide, reference compound]
[1]
  Ratio IC50 WB/enzyme (PI 3-Kinase): 17

## Cc1c(CNc2ccc(OCC[C@H](NC3CCCCC3)C(=O)OC3CCCC3)cc2)cnc2nc(N)nc(N)c12 [Compound (4), (S)-2-Cyclohexylamino-4-{4-[(2,4-diamino-5-methyl-pyrido[2,3-d]pyrimidin-6-ylmethyl)-amino]-phenoxy}-butyric acid cyclopentyl ester]
U937 cells
  selectivity between a monocytic and non-monocytic cell line (cell proliferation): significantly more anti-proliferative in monocytic cell lines
[2]
  cleavage of the ester in monocytic versus non-monocytic cell lines: selective cleavage in monocytic but not non-monocytic cell lines

## Cc1c(CNc2ccc(C(=O)N[C@@H](CC(C)C)C(=O)OC3CCCC3)cc2)cnc2nc(N)nc(N)c12 [Compound (6), (S)-2-{4-[(2,4-Diamino-5-methyl-pyrido[2,3-d]pyrimidin-6-ylmethyl)-amino]-benzoylamino}-4-methyl-pentanoic acid cyclopentyl ester]
Recombinant human DHFR; [3]
  IC50: 1700 nM
U937 cells; U937 cells, versus (2 G=N)
  fold more potent in U937 cells than the unmodified analogue (2 G=N): 100 fold
HCT 116 cells; HCT116, versus (2 G=N)
  fold more potent in the HCT116 than the unmodified analogue (2 G=N): 15 fold

## Cc1c(CNc2ccc(CNC(CC(C)C)C(=O)OC3CCCC3)cc2)cnc2nc(N)nc(N)c12 (stereo not drawn)
Recombinant human DHFR; [3]
  IC50: 4000 nM
Recombinant human DHFR; [4]
  IC50: 10 nM
HCT 116 cells
  Ratio IC50 Cell/enzyme (HCT116), Table 2: 17
